Measurements from the supplement of paper PMC4862054.

The molecules below were run on Hs578T (assay: normalised viability (% of control), CellTiter-Blue; higher = more viable cells (about 100 = DMSO control)). Conditions: 1000 nM; incubation time: 72 h.
Summary of the method: (§1)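 Vehicle (100) and a positive kill control (0) anchored the normalisation of each plate, and Z'-factor was used for quality control. Breast cancer cell lines in 20 µl suspension were incubated 72 h over compound in 5 µl medium in 384-well plates, followed by CellTiter-Blue at 560/590 nm. The value is normalised viability at a single listed concentration of the series.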

Row | Compound | normalised viability
1 | CCCS(=O)(=O)Nc1ccc(F)c(C(=O)c2c[nH]c3ncc(-c4ccc(Cl)cc4)cc23)c1F [Vemurafenib] | 129%
2 | O=C(O)C(=O)O.[NH-][C@@H]1CCCC[C@H]1[NH-].[Pt+2] [Oxaliplatin] | 129%
3 | Cc1ccc(-c2cc(C(F)(F)F)nn2-c2ccc(S(N)(=O)=O)cc2)cc1 [Celecoxib] | 108%
4 | NCCCNCCSP(=O)(O)O [Amifostine] | 104%
5 | COc1cc2c(Oc3ccc4[nH]c(C)cc4c3F)ncnc2cc1OCCCN1CCCC1 [Cediranib] | 92.2%
6 | C[C@H]1C[C@@H]2[C@H]([C@@H](O)C[C@@]3(C)[C@H]2CC[C@]3(O)C(=O)CO)[C@@]2(C)C=CC(=O)C=C12 [Methylprednisolone] | 116%
7 | CCc1cncnc1N1CCN(Cc2nc3ccc(C(F)(F)F)cc3[nH]2)CC1 | 122%
8 | C=CC(=O)N1CCC[C@@H](n2nc(-c3ccc(Oc4ccccc4)cc3)c3c(N)ncnc32)C1 | 112%
9 | Oc1ncc(N(CCCl)CCCl)c(O)n1 [Uracil mustard] | 100%
10 | Cc1cnc(NC(=O)Nc2cc(Br)c(C)cc2OC[C@@H]2CNCCO2)cn1 | 35%
11 | CC1=C(/C=C/C(C)=C/C=C/C(C)=C/C(=O)O)C(C)(C)CCC1 [Tretinoin] | 105%

Same assay, conditions: 10000 nM; incubation time: 72 h

Row | Compound | normalised viability
12 | Nc1nc(F)nc2c1ncn2[C@@H]1O[C@H](CO)[C@@H](O)[C@@H]1O [Fludarabine] | 87.2%
13 | O=C(O)C1(C(=O)O)CCC1.[NH2-].[NH2-].[Pt+2] [Carboplatin] | 109%
14 | N#Cc1ccc(C(c2ccc(C#N)cc2)n2cncn2)cc1 [Letrozole] | 98.9%
15 | C1CN1c1nc(N2CC2)nc(N2CC2)n1 [Triethylenemelamine] | 110%
16 | CCCS(=O)(=O)Nc1ccc(F)c(C(=O)c2c[nH]c3ncc(-c4ccc(Cl)cc4)cc23)c1F [Vemurafenib] | 45.9%
17 | O=C(O)C(=O)O.[NH-][C@@H]1CCCC[C@H]1[NH-].[Pt+2] [Oxaliplatin] | 66.9%
18 | Cc1ccc(-c2cc(C(F)(F)F)nn2-c2ccc(S(N)(=O)=O)cc2)cc1 [Celecoxib] | 92.6%
19 | NCCCNCCSP(=O)(O)O [Amifostine] | 95.6%
20 | C[C@H]1C[C@@H]2[C@H]([C@@H](O)C[C@@]3(C)[C@H]2CC[C@]3(O)C(=O)CO)[C@@]2(C)C=CC(=O)C=C12 [Methylprednisolone] | 111%
21 | CCc1cncnc1N1CCN(Cc2nc3ccc(C(F)(F)F)cc3[nH]2)CC1 | 88.8%
22 | Oc1ncc(N(CCCl)CCCl)c(O)n1 [Uracil mustard] | 80.3%
23 | CC1=C(/C=C/C(C)=C/C=C/C(C)=C/C(=O)O)C(C)(C)CCC1 [Tretinoin] | 100%

These molecules were tested on MDA-MB-453 in the same assay as above. Conditions: 0.3 nM; incubation time: 72 h.
Summary of the method: as §1

Row | Compound | normalised viability
24 | COc1cc2c(Oc3ccc4[nH]c(C)cc4c3F)ncnc2cc1OCCCN1CCCC1 [Cediranib] | 85.7%
25 | C=CC(=O)N1CCC[C@@H](n2nc(-c3ccc(Oc4ccccc4)cc3)c3c(N)ncnc32)C1 | 112%
26 | Cc1cnc(NC(=O)Nc2cc(Br)c(C)cc2OC[C@@H]2CNCCO2)cn1 | 109%

Same assay, conditions: 3 nM; incubation time: 72 h

Row | Compound | normalised viability
27 | Nc1nc(F)nc2c1ncn2[C@@H]1O[C@H](CO)[C@@H](O)[C@@H]1O [Fludarabine] | 113%
28 | O=C(O)C1(C(=O)O)CCC1.[NH2-].[NH2-].[Pt+2] [Carboplatin] | 113%
29 | N#Cc1ccc(C(c2ccc(C#N)cc2)n2cncn2)cc1 [Letrozole] | 105%
30 | C1CN1c1nc(N2CC2)nc(N2CC2)n1 [Triethylenemelamine] | 115%
31 | CCCS(=O)(=O)Nc1ccc(F)c(C(=O)c2c[nH]c3ncc(-c4ccc(Cl)cc4)cc23)c1F [Vemurafenib] | 96.5%
32 | O=C(O)C(=O)O.[NH-][C@@H]1CCCC[C@H]1[NH-].[Pt+2] [Oxaliplatin] | 119%
33 | Cc1ccc(-c2cc(C(F)(F)F)nn2-c2ccc(S(N)(=O)=O)cc2)cc1 [Celecoxib] | 111%
34 | NCCCNCCSP(=O)(O)O [Amifostine] | 102%
35 | COc1cc2c(Oc3ccc4[nH]c(C)cc4c3F)ncnc2cc1OCCCN1CCCC1 [Cediranib] | 97%
36 | C[C@H]1C[C@@H]2[C@H]([C@@H](O)C[C@@]3(C)[C@H]2CC[C@]3(O)C(=O)CO)[C@@]2(C)C=CC(=O)C=C12 [Methylprednisolone] | 112%
37 | CCc1cncnc1N1CCN(Cc2nc3ccc(C(F)(F)F)cc3[nH]2)CC1 | 101%
38 | C=CC(=O)N1CCC[C@@H](n2nc(-c3ccc(Oc4ccccc4)cc3)c3c(N)ncnc32)C1 | 92.4%
39 | Oc1ncc(N(CCCl)CCCl)c(O)n1 [Uracil mustard] | 103%
40 | Cc1cnc(NC(=O)Nc2cc(Br)c(C)cc2OC[C@@H]2CNCCO2)cn1 | 111%
41 | CC1=C(/C=C/C(C)=C/C=C/C(C)=C/C(=O)O)C(C)(C)CCC1 [Tretinoin] | 121%

Same assay, conditions: 10 nM; incubation time: 72 h

Row | Compound | normalised viability
42 | COc1cc2c(Oc3ccc4[nH]c(C)cc4c3F)ncnc2cc1OCCCN1CCCC1 [Cediranib] | 84.7%
43 | C=CC(=O)N1CCC[C@@H](n2nc(-c3ccc(Oc4ccccc4)cc3)c3c(N)ncnc32)C1 | 77.3%
44 | Cc1cnc(NC(=O)Nc2cc(Br)c(C)cc2OC[C@@H]2CNCCO2)cn1 | 105%

Same assay, conditions: 30 nM; incubation time: 72 h

Row | Compound | normalised viability
45 | Nc1nc(F)nc2c1ncn2[C@@H]1O[C@H](CO)[C@@H](O)[C@@H]1O [Fludarabine] | 112%
46 | O=C(O)C1(C(=O)O)CCC1.[NH2-].[NH2-].[Pt+2] [Carboplatin] | 93.3%
47 | N#Cc1ccc(C(c2ccc(C#N)cc2)n2cncn2)cc1 [Letrozole] | 76.8%
48 | C1CN1c1nc(N2CC2)nc(N2CC2)n1 [Triethylenemelamine] | 102%
49 | CCCS(=O)(=O)Nc1ccc(F)c(C(=O)c2c[nH]c3ncc(-c4ccc(Cl)cc4)cc23)c1F [Vemurafenib] | 93.1%
50 | O=C(O)C(=O)O.[NH-][C@@H]1CCCC[C@H]1[NH-].[Pt+2] [Oxaliplatin] | 101%
51 | Cc1ccc(-c2cc(C(F)(F)F)nn2-c2ccc(S(N)(=O)=O)cc2)cc1 [Celecoxib] | 97.5%
52 | NCCCNCCSP(=O)(O)O [Amifostine] | 81%
53 | C[C@H]1C[C@@H]2[C@H]([C@@H](O)C[C@@]3(C)[C@H]2CC[C@]3(O)C(=O)CO)[C@@]2(C)C=CC(=O)C=C12 [Methylprednisolone] | 85.6%
54 | CCc1cncnc1N1CCN(Cc2nc3ccc(C(F)(F)F)cc3[nH]2)CC1 | 110%
55 | Oc1ncc(N(CCCl)CCCl)c(O)n1 [Uracil mustard] | 107%
